Measured values from PubChem BioAssay AID671 (University of Pittsburgh Molecular Library Screening Center, 2007).

biological target: M-phase inducer phosphatase 2 (Homo sapiens) (UniProt P30305); test: inhibition of Cdc25B catalytic domain activity – biochemical, with glutathione, probe assessment, dose response (AID 671); conditions: recombinant Cdc25B catalytic domain
Sequence (P30305 whole entry, looked up, the tested form may be a part): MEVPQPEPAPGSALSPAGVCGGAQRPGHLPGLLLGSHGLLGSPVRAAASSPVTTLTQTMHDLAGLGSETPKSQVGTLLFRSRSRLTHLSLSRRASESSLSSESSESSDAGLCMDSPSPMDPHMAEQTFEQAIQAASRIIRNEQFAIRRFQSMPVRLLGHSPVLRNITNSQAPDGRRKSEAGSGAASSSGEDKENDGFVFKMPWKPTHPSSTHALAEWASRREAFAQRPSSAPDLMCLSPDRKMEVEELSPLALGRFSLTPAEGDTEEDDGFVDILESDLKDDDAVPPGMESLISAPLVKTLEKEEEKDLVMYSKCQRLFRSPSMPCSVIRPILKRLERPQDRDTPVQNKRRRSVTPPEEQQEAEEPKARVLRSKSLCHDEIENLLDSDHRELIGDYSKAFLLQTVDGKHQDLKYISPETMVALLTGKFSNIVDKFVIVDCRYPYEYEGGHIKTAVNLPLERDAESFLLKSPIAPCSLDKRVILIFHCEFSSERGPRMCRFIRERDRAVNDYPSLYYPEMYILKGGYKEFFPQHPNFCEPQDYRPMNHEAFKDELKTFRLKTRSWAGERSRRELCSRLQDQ

SMILES	IC50 [µM]
Cc1ccc2c(c1)C1C=CCC1C(C(=O)O)N2 (stereo not drawn)	5.89

same assay, conditions: recombinant Cdc25B catalytic domain, measured here: inhibition at top dose 50 uM, at 50 µM, stronger effect = higher value

SMILES	inhibition [%]
O=C(O)C1Nc2c(O)cccc2C2C=CCC12 (stereo not drawn)	94.8
Cc1c(N=c2c(=O)c3ccccc3c2=O)c(=O)n(-c2ccccc2)n1C	30.4
COc1ccc2noc3c2c1C(=O)c1ccccc1-3	16.7
COc1cccc2c(C)c(C(=O)O)[nH]c12	85.7
c1ccc(CSc2nnc(-c3ccco3)c(-c3ccco3)n2)cc1	84.7
CCOc1ccc2noc3c2c1C(=O)c1ccccc1-3	30.7
O=C(Nc1ccc2nc(-c3ccco3)c(-c3ccco3)nc2c1)N1CCCCCC1	85.5
Cn1ncnc2c(=O)n(C)c(=O)nc1-2	63
[O-]/[N+](=C\c1ccncc1)c1ccccc1	4.4
O=C(OC1CCCCC1)c1ccc2c(c1)C1C=CCC1C(C(=O)O)N2 (stereo not drawn)	90.2
COc1ccc(Br)cc1/C=c1\sc2nc(-c3ccco3)nn2c1=O	91.7
O=c1[nH]c(Nc2ccccc2)cc2ccccc12	48.6
N#Cc1c(N)sc(=S)c2c1CCN(Cc1ccccc1)C2	51
Cc1ccccc1Nc1cc2ccccc2c(=O)[nH]1	40.3
COc1cccc2c1NC(C(=O)O)C1CC=CC21 (stereo not drawn)	85
Cc1ccc2c(c1)C1C=CCC1C(C(=O)O)N2 (stereo not drawn)	88.9
CCOC(=O)C(C(=O)OCC)c1cc(Br)c2noc3c2c1C(=O)c1ccccc1-3	36.5
Nc1cccc2cnccc12	-3.3
O=C1C=Cc2ccccc2C1=O	78.6
O=C1Cc2ccccc2C(=O)N1CCc1ccccc1	7.6
CCn1nc(-c2cccs2)nc2c(=O)n(C)c(=O)nc1-2	41.5
N#Cc1c(N2CCCC2)nc(N)c2c(N)nc(N3CCCC3)cc12	-13.3
[O-]/[N+](=C\c1ccc(OC(F)F)cc1)c1ccccc1	8.3
CCn1nc(-c2ccccc2)nc2c(=O)n(C)c(=O)nc1-2	34.5
O=C(NC1(O)C(=O)c2ccccc2C1=O)c1ccccc1	36
Cc1ccc2c(c1C)NC(C(=O)O)C1CC=CC21 (stereo not drawn)	89.9
CC(=O)Nc1cc(OC(C)=O)c2nonc2c1OC(C)=O	28.7
